Columns and labels:
Renin [1] = target: T1, Renin (Homo sapiens, UniProt P00797); assay: Evaluation of inhibitory activity against human renin.
T1 sequence (P00797 whole entry): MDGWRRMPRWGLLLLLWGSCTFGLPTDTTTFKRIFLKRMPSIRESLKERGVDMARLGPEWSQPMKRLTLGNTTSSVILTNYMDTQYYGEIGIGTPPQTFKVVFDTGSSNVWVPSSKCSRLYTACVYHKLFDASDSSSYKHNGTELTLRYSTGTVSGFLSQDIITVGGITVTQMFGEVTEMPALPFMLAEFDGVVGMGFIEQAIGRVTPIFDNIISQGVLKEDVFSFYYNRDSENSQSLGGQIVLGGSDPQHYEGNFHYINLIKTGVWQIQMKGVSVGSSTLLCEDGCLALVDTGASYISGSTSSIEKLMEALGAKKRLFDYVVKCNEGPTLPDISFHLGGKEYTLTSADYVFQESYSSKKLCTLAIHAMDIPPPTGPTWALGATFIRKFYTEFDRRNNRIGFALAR

Renin [2] = target: T1, Renin; assay: Evaluation of inhibitory activity against human renin. value in parentheses indicate no. of determinations
Renin [3] = target: T1, Renin; assay: Evaluation of inhibitory activity against human renin

Row | SMILES | IC50 (Renin [2]) [µM] | IC50 (Renin [3]) [µM] | also measured
1 | CCOP(=O)(OCC)[C@@H](O)[C@H](CC1CCCCC1)NC(=O)[C@H](CC(C)C)NC(=O)[C@H](Cc1ccccc1)NC(=O)OC(C)(C)C | – | – | IC50 (Renin [1]): 41 µM
2 | CCP(=O)(CC)[C@H](O)[C@H](CC1CCCCC1)NC(=O)[C@H](CC(C)C)NC(=O)[C@H](Cc1ccccc1)NC(=O)C1CCCC1 | 0.4 | – | –
3 | COP(=O)(OC)[C@H](O)[C@H](CC1CCCCC1)NC(=O)[C@H](CC(C)C)NC(=O)[C@H](Cc1ccccc1)NC(=O)CCCCCN | – | 0.031 | –
4 | COP(=O)(OC)[C@H](O)[C@H](CC1CCCCC1)NC(=O)[C@H](CC(C)C)NC(=O)[C@H](Cc1ccccc1)NC(=O)N1CCOCC1 | – | 0.0085 | –
5 | COP(=O)(OC)[C@H](O)[C@H](CC1CCCCC1)NC(=O)[C@H](Cc1cnc[nH]1)NC(=O)[C@H](Cc1ccccc1)NC(=O)N1CCOCC1 | – | 0.041 | –
6 | COP(=O)(O)[C@H](O)[C@H](CC1CCCCC1)NC(=O)[C@H](CC(C)C)NC(=O)[C@H](Cc1ccccc1)NC(=O)C1CCCC1 | – | 27 | –
7 | COP(=O)(OC)[C@H](O)[C@H](CC1CCCCC1)NC(=O)[C@H](CC(C)C)NC(=O)[C@H](Cc1ccccc1)NC(=O)C1CCCC1 | – | 0.016 | –
8 | COP(=O)(OC)[C@H](O)[C@H](CC1CCCCC1)NC(=O)[C@H](CC(C)C)NC(=O)[C@H](Cc1ccccc1)NC(=O)OC(C)(C)C | – | – | IC50 (Renin [1]): 0.01 µM
9 | CCOP(=O)(OCC)[C@H](O)[C@H](CC1CCCCC1)NC(=O)[C@H](CC(C)C)NC(=O)[C@H](Cc1ccccc1)NC(=O)C1CCCC1 | – | – | IC50 (Renin [1]): 0.038 µM
10 | CCOP(=O)(OCC)[C@H](O)[C@H](CC1CCCCC1)NC(=O)[C@H](CC(C)C)NC(=O)[C@H](Cc1ccccc1)NC(=O)OC(C)(C)C | – | – | IC50 (Renin [1]): 0.029 µM
11 | COP(=O)(OC)[C@H](O)[C@H](CC1CCCCC1)NC(=O)[C@H](Cc1cnc[nH]1)NC(=O)[C@H](Cc1ccccc1)NC(=O)C1CCCC1 | – | 0.22 | –
12 | CCP(=O)(OC)C(O)[C@H](CC1CCCCC1)NC(=O)[C@H](CC(C)C)NC(=O)[C@H](Cc1ccccc1)NC(=O)C1CCCC1 (stereo in doubt; 29) | 0.044 | – | –

More lines, main results first:

Row | IC50 (Renin [2]) [µM] | IC50 (Renin [3]) [µM] | SMILES | also measured
13 | – | 0.005 | CCOC(=O)[C@H](O)[C@H](CC1CCCCC1)NC(=O)[C@H](CC(C)C)NC(=O)[C@H](Cc1ccccc1)NC(=O)OC(C)(C)C | –
14 | 5.2 | – | CCP(=O)(CC)[C@@H](O)[C@H](CC1CCCCC1)NC(=O)[C@H](CC(C)C)NC(=O)[C@H](Cc1ccccc1)NC(=O)C1CCCC1 | –
15 | 0.21 | – | CCP(=O)(OC)C(O)[C@H](CC1CCCCC1)NC(=O)[C@H](CC(C)C)NC(=O)[C@H](Cc1ccccc1)NC(=O)C1CCCC1 (stereo in doubt; 28) | –
16 | 2.4 | – | CCP(=O)(OC)C(O)[C@H](CC1CCCCC1)NC(=O)[C@H](CC(C)C)NC(=O)[C@H](Cc1ccccc1)NC(=O)C1CCCC1 (stereo in doubt; 30) | –

— ChEMBL document CHEMBL1128189, “alpha-Hydroxy phosphinyl-based inhibitors of human renin” (J Med Chem, 1995)
